These results are taken from ChEMBL document CHEMBL1121379, “Some short-chain N6-substituted adenosine analogues with antitumor properties” (1980).

“And” between values parts separate entries of the source, which are not always exact repeats. Equal entries are not always repeated.

What all share (type): functional
One experiment has as its system MCF7. The experiment can be described thus: Concentration required for 50% growth inhibition of human breast tumor cells MCF-7 human breast carcinoma cells. Particulars: read-out: ID50 (the source's name).
Experiment [1] relates to Mus musculus. The experiment in a line: antitumor activity against mouse leukemia, L-1210(DBA/2 Ha Mice) % increase in life span at 3.12 mg/kg of dose per day. Particulars: L1210, dose 3.12 mg/kg.
A short description of experiment [2]: Concentration required for 50% growth inhibition of the following cell lines human fibro blast cells. The settings on record: read-out: ID50 (the source's name).
The test system of experiment [3] is Mus musculus. The experiment in a line: Antitumor activity against mouse leukemia, L-1210(DBA/2 Ha Mice) mean life span ( days) of the mouse after the dosage at 1.56 mg/kg of dose per day.
A short description of experiment [4]: Concentration required for 50% growth inhibition of human breast tumor cells SW-613 human breast adenocarcinoma cells. The settings on record: SW613, read-out: ID50 (the source's name).
A short description of experiment [5]: Concentration required for 50% growth inhibition of the following cell lines sarcoma S-180 cells. The settings on record: Mus musculus, read-out: ID50 (the source's name).
Experiment [6] deals with Mus musculus. The experiment in a line: Antitumor activity against slow growing spontaneous mammary tumors in the DBA/2 Ha-DD mouse mean life span in days at 50 mg/kg give 5 times once in 5 days.
The species entered for experiment [7] is Mus musculus. The experiment can be described thus: Concentration required for 50% growth inhibition of the following cell lines mouse fibro blasts. The settings on record: read-out: ID50 (the source's name).
The subject of a further experiment is L1210. The experiment in a line: Concentration required for 50% growth inhibition of the following cell lines Leukemia L-1210 cells. The settings on record: Mus musculus, read-out: ID50 (the source's name).
The subject of experiment [8] is Mus musculus. The experiment in a line: Antitumor activity against slow growing spontaneous mammary tumors in the DBA/2 Ha-DD mouse % increased in life span 3.8 mg/kg/day x 5 melphalan + 50 mg/kg/day compound.
The nature of experiment [9]: Concentration required for 50% growth inhibition of the following cell lines Carcinoma TA-3 cells. The settings on record: Mus musculus, TA3; read-out: ID50 (the source's name).
The test system of a further experiment is Burkitts lymphoma cell. The experiment can be described thus: Concentration required for 50% growth inhibition of the following cell lines human burkitt lymphoma cells. Particulars: read-out: ID50 (the source's name).
Experiment [10] concerns Mus musculus. The experiment can be described thus: Antitumor activity against slow growing spontaneous mammary tumors in the DBA/2 Ha-DD mouse number of days reacquired fro tumor growth 3.8 mg/kg/day x 5 melphalan once in 5 days. The arrangement: unit: days.
Experiment [11] in a line: Concentration required for 50% growth inhibition of the following cell lines human bladder carcinoma cells. The settings on record: read-out: ID50 (the source's name).
Experiment [12] concerns Mus musculus. The experiment in a line: Antitumor activity against slow growing spontaneous mammary tumors in the DBA/2 Ha-DD mouse % increased in life span 3.8 mg/kg/day x 5 melphalan + 50 mg/kg/day.
Experiment [13] concerns Mus musculus. The experiment can be described thus: Antitumor activity against mouse leukemia, L-1210(DBA/2 Ha Mice) % increase in life span at 3.12 mg/kg of dose per day. The settings on record: for ILS at 3.12 mg/kg: Mus musculus, L1210, dose 3.12 mg/kg.
A further experiment deals with HeLa. The experiment can be described thus: Concentration required for 50% growth inhibition of the following cell lines Hela cells. The settings on record: Homo sapiens, read-out: ID50 (the source's name).
The subject of experiment [14] is Mus musculus. The experiment can be described thus: Antitumor activity against mouse leukemia, L-1210(DBA/2 Ha Mice) mean life span (days) of the mouse after fractionated dosage(dose divided in two halves and administered in two daily injections) at 6.25 mg/kg of dose per day.

What is called ILS is the gain in survival time of treated over control animals, in per cent. As to `C=CCNc1ncnc2c1ncn2[C@@H]1O[C@H](CO)[C@@H](O)[C@H]1O`, the IC50 stood at 1.4 µM in the experiment with MCF7; 2.7 µM in experiment [2]; 50 µM in [4]; 20 µM in experiment [5]; 14 µM in the experiment filed under Mus musculus [7]; 12 µM in the experiment with L1210. Besides, the values for the IC50 (in experiment [9]; with Burkitts lymphoma cell; in experiment [11]) were 3 µM, 2.3 µM and 7.5 µM, respectively. Besides, the ILS at 3.12 mg/kg in the experiment with Mus musculus [1] was found to be 8%. The Life span in the experiment on Mus musculus [3] (1.56 mg/kg) is 8.3 and 10; in the experiment on Mus musculus [6] (50 mg/kg) it was 46.6 and 48. The ILS was 82.5% and 38.7% in the experiment with Mus musculus [8]; 42.8% with Mus musculus [12]. Further, the Tumor half growth in the experiment with Mus musculus [10] is 16 and 26 and 30.

As for `CC(C)Nc1ncnc2c1ncn2[C@@H]1O[C@H](CO)[C@@H](O)[C@H]1O`, the IC50 amounted to 6.3 µM in the experiment with MCF7; 6.5 µM in experiment [2]; 150 µM in [4]; 30 µM in [5]; 20 µM in the experiment filed under Mus musculus [7]; 19 µM in the experiment on L1210. For the same compound, the figures for the IC50 (in experiment [9]; with Burkitts lymphoma cell; in [11]) were 13 µM, 27 µM and 11 µM, respectively. Besides, the Life span in the experiment with Mus musculus [3] was 7.3; in the experiment with Mus musculus [6] (50 mg/kg), 63.3 and 54.8 and 23.6. Moreover, the ILS in the experiment with Mus musculus [8] is 25.5% and 60% and 63.1%; in the experiment on Mus musculus [13] (dose 3.12 mg/kg) it was 14.7% and 17.4% and 37.4%. Further, the Tumor half growth in the experiment with Mus musculus [10] is 17 and 24.

With `C=C(C)CNc1ncnc2c1ncn2C1O[C@H](CO)[C@@H](O)[C@H]1O` (stereo partly drawn), the IC50 in [2] amounted to 1.5 µM; in experiment [4] it was 4 µM; in the experiment filed under Mus musculus [7], 25 µM; with L1210, 19 µM; in experiment [9] it was 18 µM; in the experiment with Burkitts lymphoma cell, 11 µM. For the same compound, the IC50 in experiment [11] was determined as 9 µM. In the experiment on Mus musculus [3], this compound gave a Life span of 30. The ILS in the experiment with Mus musculus [8] is recorded as 19%. Moreover, the Tumor half growth in the experiment on Mus musculus [10] worked out at 15.

Turning to `C#CCNc1ncnc2c1ncn2C1O[C@H](CO)[C@@H](O)[C@H]1O` (stereo partly drawn), the IC50 with MCF7 stood at 1.6 µM; in [2], 2.8 µM; in the experiment on HeLa, 3.5 µM; in the experiment listed under Mus musculus [7] it was 3.1 µM; in the experiment with L1210, 1 µM; in experiment [9], 2.5 µM. The IC50 in the experiment on Burkitts lymphoma cell worked out at 8.3 µM; in experiment [11], 3.8 µM. This compound displayed a Life span in the experiment on Mus musculus [3] of 8.2. Also, the ILS with Mus musculus [8] is 60%. For the same compound, the Tumor half growth with Mus musculus [10] is listed as 18. This compound gave an ILS at 3.12 mg/kg in the experiment with Mus musculus [13] of 20%.

With `OC[C@H]1O[C@@H](n2cnc3c(NCc4ccccc4)ncnc32)[C@H](O)[C@@H]1O` [N6-BENZYLADENOSINE], the IC50 in the experiment with MCF7 is 22 µM; in [4], 4 µM; in [5], 45 µM; in the experiment on L1210, 8.5 µM; in experiment [9], 14 µM; with Burkitts lymphoma cell it was 11 µM. Besides, the Life span with Mus musculus [3] is on record as 9.7; in the experiment on Mus musculus [6], 62.6; in the experiment with Mus musculus [14] it was 38.8. Further, in the experiment with Mus musculus [8], the ILS was 10.9% and 26%. For the same compound, in the experiment on Mus musculus [10], the Tumor half growth is 20 and 21. In the experiment with Mus musculus [13], this compound yielded an ILS at 3.12 mg/kg of 41%.
